Measurements as given in patent publication US20060035295A1, “Method for determination of thymidine kinase 1 activity and the use thereof” (priority 2002, published 2006).
Entries after “also recorded” stand apart in the source; their conditions may differ.

What was measured:
TK1 = target: T1, TK1 (Homo sapiens, UniProt P04183); conditions: almost the same relative efficiency as Thymidine; cited from earlier work
T1 sequence (P04183 1-234): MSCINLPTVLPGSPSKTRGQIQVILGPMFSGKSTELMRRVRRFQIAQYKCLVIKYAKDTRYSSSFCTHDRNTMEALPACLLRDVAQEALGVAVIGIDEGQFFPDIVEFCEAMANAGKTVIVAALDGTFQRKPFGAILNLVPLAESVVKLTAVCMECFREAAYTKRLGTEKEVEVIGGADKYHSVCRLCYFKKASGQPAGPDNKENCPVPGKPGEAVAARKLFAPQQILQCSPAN

[1] = blood serum or cell extracts; cited from earlier work
serum TK = experiment: Serum TK measurement with tritium labelled AZT; type: biochemical, human; conditions: 16 clinical patient serum samples, 4 h at 37° C.
Experimental: In order to determine if serum TK can use AZT as substrate, an experiment was performed with 16 clinical patient serum samples (20 μl) mixed with 2 μL ^3H-AZT (Ci/mmol Moraveck Inc, USA) and 20 μL reaction mixture containing 10 mM Tris-HCl (pH 7.6), 5 mM ATP, 5 mM MgCl2, 3.5 mM NaF, 2 mM DTT. The assay was performed 4 h at 37° C. and the amount of AZTMP formed was determined by DE 51 ion exchange paper method as described (9). Previous experiments had established that this amount of serum gave a linear reaction during the time period tested.

[2] = tested on: chicken anti-AZTMP antibodies; experiment: Competitive assay for anti-AZTMP antibody specificity (AZXMP hapten coated plates); type: binding; conditions: increasing amounts of competitor added to anti-AZTMP antibody solution; FIG. 2
Experimental: FIG. 2 Anti-AZTMP antibody specificity. Dose response curve for the competitive assay, according to example 1, between free AZTMP (left curve, denoted AZTMP) or AZT (right curve, denoted AZT) and Immobilised hapten, AZXMP (see FIG. 1) illustrating the specificity of chicken anti-AZTMP antibodies. Y-axis: original absorbance values (B) are normalised against values obtained in the absence of competitor (B0) to obtain (B/B0).
Antibody specificity and titre were evaluated using the competitive assay format described in example 4. To evaluate non-specific binding the antibody was substituted with diluent. Antibody specificity and titre was also evaluated using an assay whereby AZXMP hapten was coated to plates. AZXMP was conjugated to BSA using GA as linker and subsequently coated to the microtiter plates. In this assay, 100 μl of serially diluted antibody solutions were first incubated with AZXMP coated wells for 1 h at RT.
Wells of microtiter plates were washed three times with PBST (PBS plus 0,05% Tween 20). 100 μL of secondary antibody (diluted Horse Radish Peroxidase (HRP)-labelled anti-Goat IgG solution or anti-IgY antibody) was added and incubated for 30 min at room temperature. After 3 times washing with 250 μl PBST, bound antibody complexes were detected using TMB as substrate. The induced colour reaction was stopped after 5 min using 1M H2SO4 and detected at 450 nm. […]

thymidine phosphatase = target: T2, thymidine phosphatase (Homo sapiens, UniProt P19971); conditions: in blood serum or in cell extracts; cited from earlier work
T2 sequence (P19971 11-482): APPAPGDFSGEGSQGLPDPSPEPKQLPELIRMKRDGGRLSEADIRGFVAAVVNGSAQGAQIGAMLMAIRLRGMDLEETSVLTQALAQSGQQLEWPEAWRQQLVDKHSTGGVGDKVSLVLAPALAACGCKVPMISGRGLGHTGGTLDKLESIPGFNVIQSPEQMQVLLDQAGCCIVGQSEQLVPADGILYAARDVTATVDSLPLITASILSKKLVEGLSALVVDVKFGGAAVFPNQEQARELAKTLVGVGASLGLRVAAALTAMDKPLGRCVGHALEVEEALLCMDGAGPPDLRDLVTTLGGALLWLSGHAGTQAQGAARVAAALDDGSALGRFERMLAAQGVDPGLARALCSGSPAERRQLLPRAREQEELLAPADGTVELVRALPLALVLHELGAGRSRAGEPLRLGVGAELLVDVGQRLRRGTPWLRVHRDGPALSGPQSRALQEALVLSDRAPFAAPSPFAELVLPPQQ

TK2 = target: T3, TK2 (Homo sapiens, UniProt O00142); conditions: cited from earlier work
T3 sequence (O00142 34-265): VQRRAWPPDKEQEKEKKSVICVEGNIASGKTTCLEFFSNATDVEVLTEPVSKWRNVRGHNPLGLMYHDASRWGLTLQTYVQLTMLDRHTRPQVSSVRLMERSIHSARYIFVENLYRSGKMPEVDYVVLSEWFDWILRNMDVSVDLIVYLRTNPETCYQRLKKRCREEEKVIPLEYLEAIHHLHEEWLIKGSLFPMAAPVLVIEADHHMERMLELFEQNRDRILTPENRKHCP

phosphatases = experiment: TK ELISA with UMP in substrate buffer to inhibit phosphatase activity; type: biochemical, human; conditions: 1 mM UMP; two of four tested sera
Experimental: A potential problem for the analysis of a kinase activity in patient sera is the presence of phosphatase activity in the same sera to drive the reverse reaction (dephosphorylaUon). One way to inhibit the phosphatase is to include UMP in the substrate buffer to protect AZTMP from being dephosphorylated to AZT.
Substrate buffers containing 172 mM HEPES, 62 mM NaOH, 62 mM MgCl2*6H2O, 34 mM KCl, 142 mM Mannitol, 7,8 mM ATP, 12 mM DTE, and 25 μg/ml AZT were prepared—with variable concentrations UMP, i.e. 0, 0.1, 1 or 5 mM UMP.
A TK1 standard preparation 80 U/L (in heat inactivated fetal calf serum) was diluted in 9 g/L deionized-water, also used as zero standard level, to give further standard levels of 40, 20, 10, 5 and 2,5 U/L, respectively. Four human sera were also assayed. Two sera were from healthy blood donors and two sera from patients monitored with TK REA.
Next the TK reactions were performed by adding 50 μl of substrate buffer together with 50 μL of TK1 standard/or patient serum sample in non-coated microtitre wells.
The plate was incubated for 60 minutes at 37° C. […]
For the detection 50 μl were transferred to a plate which plate was coated with 1 μg/well rabbit anti chicken IgY (Sigma, MO, USA). […] The TMB reaction was stopped with 100 μl acid TMB stop and the absorbance read at 450 nm.

Structure (SMILES)	substrate quality for TK1 (TK1)	metabolic stability [1]	use as substrate by serum TK (serum TK)	competition with immobilised AZXMP for antibody binding [2]	substrate for thymidine phosphatase (thymidine phosphatase)	phosphorylation by TK2 (TK2)	effect on TK values of tested sera (phosphatases)
Cc1cn([C@H]2C[C@H](N=[N+]=[N-])[C@@H](CO)O2)c(=O)[nH]c1=O [AZT, 3′-azido-3′-deoxythymidine]	good substrate for TK1	stable metabolites	can efficiently use AZT as substrate; also recorded: selective, efficient and stable substrates	not able to compete out AZXMP	does not use AZT as a substrate	low capacity to phosphorylate AZT	
O=c1ccn([C@@H]2O[C@H](COP(=O)(O)O)[C@@H](O)[C@H]2O)c(=O)[nH]1 [UMP, Uridine monophosphate]							significantly higher TK values
Cc1cn([C@H]2C[C@H](N=[N+]=[N-])[C@@H](COP(=O)(O)O)O2)c(=O)[nH]c1=O [AZTMP, AZT-5′-monophosphate]		stable metabolites					
